According to patent US20250332154A1, “USE OF NAPHTHOQUINE PHOSPHATE IN PREPARATION OF A MEDICAMENT FOR TREATING AUTOIMMUNE DISEASES” (SHANGHAI PHARMACEUTICALS INDUSTRY CO., LTD, priority 2022, published 2025):

What was measured:
[1] = tested on: spleen and lymph node lymphocytes in arthritic mice; assay: Lymphocyte proliferation of spleen and lymph nodes of arthritic mice (3H-TdR incorporation); format: in vivo, mouse; conditions: intragastric, cells stimulated ex vivo, FIG. 3
Experimental: Normal group, model group, positive medicament (1 mg/kg dexamethasone) group, naphthoquine phosphate (25, 50, 100 mg/kg) groups, hydroxychloroquine sulfate (100 mg/kg) group.
10 mg of Type II Collagen (CII) was swollen in 2.5 ml of 0.1 mol/L glacial acetic acid to prepare a 4 mg/ml CII solution. This solution was fully emulsified with an equal volume of CFA, and injected subcutaneously (50 μl) at the base of the tail of mice. After 21 days, 4 mg/ml CII solution was fully emulsified with an equal volume of IFA. This mixture was injected subcutaneously (50 μL) at the base of the tail of mice to boost the immune response.
Lymphocyte proliferation in each group was assessed using the ^3H-TdR incorporation method. Lymph nodes […] of mice in each group were isolated to prepare lymphocyte suspensions. The cells were inoculated into each well of a 96-well plate. ConA (final concentration: 5 μg/ml) and LPS (final concentration: 10 μg/ml) were added respectively, and cultured in a 37° C., 5% CO2 incubator for 48 hours. Eight hours before the end of the culture, 25 μl ^3H-TdR and anti-CD3 (final concentration: 5 μg/ml, pre-incubated overnight) were added to each well. The cells were cultured in a 37° C., 5% CO2 incubator for […]. […] 5 ml scintillation fluid was added, and the values of radioactive counts per minute were read on a Beta counter (2450 Microplate Counter, PerkinElmer).

anti-dsDNA antibodies = assay: Anti-double-stranded DNA antibodies in serum of MRL/lpr mice (ELISA); format: in vivo, mouse; conditions: intragastric 25, 50 mg/kg, FIG. 8
Experimental: Normal group, model group, positive medicament (1 mg/kg prednisone) group, naphthoquine phosphate (25, 50 mg/kg) group, hydroxychloroquine sulfate (100 mg/kg) group.
50 μl double-stranded DNA solution (final concentration: 50 μg/ml) was added to each well of a 96-well ELISA plate for coating overnight. The plate was washed 4 times with 200 μl washing solution (1L PBS+500 μl Tween 20) per well. 100 μl 1% BSA was added to each well and blocked for 1 hour. The plate was washed 4 times with 200 μl washing solution per well. 50 μl diluted mouse serum samples of each group were added to each well and incubated for 2 hours. The plate was washed 4 times with 200 μl washing solution per well. Horseradish peroxidase (HRP)-conjugated IgG (H+L) secondary antibodies were added and incubated for 1 hour. The plate was washed 5 times with 200 μl washing solution per well. 50 μl tetramethylbenzidine (TMB) substrate was added, and 30 μl 1M sulfuric acid solution was added to terminate color development based on the condition of color development. Absorbance values at 450 nm/570 nm were read by a microplate reader (Spectra Max 190, Molecular Devices).
At the end of the experiment, eyeballs were removed to collect blood. ELISA method was used to detect the levels of anti-dsDNA antibodies in serum of experimental mice, and the anti-nuclear antibody kit was used to detect the levels of anti-nuclear antibodies. […]

[2] = tested on: adjuvant-induced arthritis in rats; assay: Adjuvant-induced arthritis in rats: arthritis scoring and foot swelling; format: in vivo, rat; conditions: FIG. 7

CC(C)(C)NCc1cc(Nc2ccnc3cc(Cl)ccc23)c2c(c1O)CCCC2.O=P(O)(O)O.O=P(O)(O)O [Naphthoquine Phosphate, Naphthoquine phosphate] was tested, and the “proliferation of spleen and lymph node lymphocytes in arthritic mice” value [1] was “significantly inhibit”, the “levels of anti-dsDNA antibodies in serum” value (anti-dsDNA antibodies) was “significantly reduced” and the “clinical arthritis scores of the experimental rats” value ([2]; intragastric 25, 50, 100 mg/kg) was “improved”. The “extent of foot swelling in rats” value ([2]; intragastric 25, 50, 100 mg/kg) was “inhibited” and the “therapeutic effect in arthritic rats compared with hydroxychloroquine sulfate” value ([2]; same dose (100 mg/kg)) was “superior to that of hydroxychloroquine sulfate at the same dose”.
